This note sets out measurements from patent publication US9365522B2, “Pyrazole amide derivative” (AMGEN INC., priority 2015, dated 2016).

In the assay the target is T1, ligand binding domain of human ROR gamma (Homo sapiens, UniProt P51449).
T1 construct: NM_001001523; expressed in transfected cells; host or cells: HEK293T
T1 sequence (P51449 247-497 isoform P51449-2): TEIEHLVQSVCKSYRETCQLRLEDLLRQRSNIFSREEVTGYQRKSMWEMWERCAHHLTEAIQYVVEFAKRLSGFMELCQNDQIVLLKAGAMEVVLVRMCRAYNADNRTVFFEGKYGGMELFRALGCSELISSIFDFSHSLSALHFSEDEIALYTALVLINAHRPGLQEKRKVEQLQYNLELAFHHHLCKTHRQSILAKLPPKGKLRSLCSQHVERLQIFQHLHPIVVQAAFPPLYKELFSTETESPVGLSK
Description: ROR gamma reporter gene assay (GAL4-RORγ LBD luciferase, Dual-Glo). To be noted: HEK293T cells transfected with pM-ROR gamma, 8 concentrations 3.5 nM to 10.5 μM, 24 h incubation; read-out: result (pIC50, inhibition of RORγ transcriptional activity) (converted). The assay is classed as cell-based. In outline:
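First, HEK293T cells are transfected with the GAL4–RORγ LBD construct, a 5×UAS luciferase reporter and a constitutive renilla control. Next, test compounds are added over eight concentrations (3.5 nM to 10.5 μM). After 24 h at 37 °C, Dual-Glo luminescence is measured and pIC50 fitted.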
On the technique in general: Reporter assays use an easily measured gene product as a stand-in for the process of interest.
For the compound `Cc1cncc(Cl)c1C(=O)CN(Cc1cc(F)cc(F)c1)C(=O)c1cnn([C@H]2CC[C@H](C(=O)O)CC2)c1C(F)(F)F` [Example 49, trans-4-(4-((2-(3-chloro-5-methylpyridin-4-yl)-2-oxoethyl)(3,5-difluorobenzyl)carbamoyl)-5-(trifluoromethyl)-1H-pyrazol-1-yl)cyclohexanecarboxylic acid], the IC50 is 40700 pM. Regarding `O=C(CN(Cc1cc(F)cc(F)c1)C(=O)c1cnn([C@H]2CC[C@H](C(=O)O)CC2)c1C(F)(F)F)c1c(F)cncc1Cl` [Example 50, trans-4-(4-((2-(3-chloro-5-fluoropyridin-4-yl)-2-oxoethyl)(3,5-difluorobenzyl)carbamoyl)-5-(trifluoromethyl)-1H-pyrazol-1-yl)cyclohexanecarboxylic acid], the IC50 is 70800 pM. The value for `O=C(CN(Cc1cc(F)cc(F)c1)C(=O)c1cnn([C@H]2CC[C@H](C(=O)O)CC2)c1C(F)(F)F)c1c(F)cncc1F` [Example 51, trans-4-(4-((3,5-difluorobenzyl)(2-(3,5-difluoropyridin-4-yl)-2-oxoethyl)carbamoyl)-5-(trifluoromethyl)-1H-pyrazol-1-yl)cyclohexanecarboxylic acid] was 4.07e+06 pM.

Consider `Cc1cncc(C)c1C(=O)CN(Cc1cc(F)cc(F)c1)C(=O)c1cnn([C@H]2CC[C@H](C(=O)O)CC2)c1C(F)(F)F` [Example 52], for which the IC50 is 245000 pM. Consider `O=C(CN(Cc1cc(F)cc(F)c1)C(=O)c1cnn([C@H]2CC[C@H](C(=O)O)CC2)c1C(F)(F)F)c1c(Cl)cccc1Cl` [Example 53, trans-4-(4-((2-(2,6-dichlorophenyl)-2-oxoethyl)(3,5-difluorobenzyl)carbamoyl)-5-(trifluoromethyl)-1H-pyrazol-1-yl)cyclohexanecarboxylic acid], for which the IC50 is 16200 pM. For `COc1cccc(Cl)c1C(=O)CN(Cc1cc(F)cc(F)c1)C(=O)c1cnn([C@H]2CC[C@H](C(=O)O)CC2)c1C(F)(F)F` [Example 54, trans-4-(4-((2-(2-chloro-6-methoxyphenyl)-2-oxoethyl)(3,5-difluorobenzyl)carbamoyl)-5-(trifluoromethyl)-1H-pyrazol-1-yl)cyclohexanecarboxylic acid], the IC50 is 70800 pM. The result for `O=C(CN(Cc1cc(F)cc(F)c1)C(=O)c1cnn([C@H]2CC[C@H](C(=O)O)CC2)c1C(F)(F)F)c1c(Cl)cc(F)cc1Cl` [Example 55, trans-4-(4-((2-(2,6-dichloro-4-fluorophenyl)-2-oxoethyl)(3,5-difluorobenzyl)carbamoyl)-5-(trifluoromethyl)-1H-pyrazol-1-yl)cyclohexanecarboxylic acid] reads 8910 pM; that for `O=C(CN(Cc1cc(F)cc(F)c1)C(=O)c1cnn([C@H]2CC[C@H](C(=O)O)CC2)c1C(F)(F)F)c1c(Cl)cc(Cl)cc1Cl` [Example 56, trans-4-(4-((3,5-difluorobenzyl)(2-oxo-2-(2,4,6-trichlorophenyl)ethyl)carbamoyl)-5-(trifluoromethyl)-1H-pyrazol-1-yl)cyclohexanecarboxylic acid], 15500 pM; that for `O=C(CN(Cc1cc(F)cc(F)c1)C(=O)c1cnn([C@H]2CC[C@H](C(=O)O)CC2)c1C(F)(F)F)c1c(Cl)cc(C(F)(F)F)cc1Cl` [Example 57, trans-4-(4-((2-(2,6-dichloro-4-(trifluoromethyl)phenyl)-2-oxoethyl)(3,5-difluorobenzyl)carbamoyl)-5-(trifluoromethyl)-1H-pyrazol-1-yl)cyclohexanecarboxylic acid], 38000 pM. In the case of `N#Cc1cc(Cl)c(C(=O)CN(Cc2cc(F)cc(F)c2)C(=O)c2cnn([C@H]3CC[C@H](C(=O)O)CC3)c2C(F)(F)F)c(Cl)c1` [Example 58, trans-4-(4-((2-(2,6-dichloro-4-cyanophenyl)-2-oxoethyl)(3,5-difluorobenzyl)carbamoyl)-5-(trifluorornethyl)-1H-pyrazol-1-yl)cyclohexanecarboxylic acid], the IC50 was 135000 pM. The result for `O=C(CN(Cc1cc(F)cc(F)c1)C(=O)c1cnn([C@H]2CC[C@H](C(=O)O)CC2)c1C(F)(F)F)c1cc(Cl)cc(Cl)c1` [Example 59, trans-4-(4-((2-(3,5-dichlorophenyl)-2-oxoethyl)(3,5-difluorobenzyl)carbamoyl)-5-(trifluoromethyl)-1H-pyrazol-1-yl)cyclohexanecarboxylic acid] reads 5.89e+06 pM; that for `O=C(CN(Cc1cc(F)cc(F)c1)C(=O)c1cnn([C@H]2CC[C@H](C(=O)O)CC2)c1C(F)(F)F)c1cc(F)cc(F)c1` [Example 60, trans-4-(4-((3,5-difluorobenzyl)(2-(3,5-difluorophenyl)-2-oxoethyl)carbamoyl)-5-(trifluoromethyl)-1H-pyrazol-1-yl)cyclohexanecarboxylic acid], greater than 1e+07 pM.

Regarding `O=C(CN(Cc1cc(F)cc(F)c1)C(=O)c1cnn([C@H]2CC[C@H](C(=O)O)CC2)c1C(F)(F)F)c1ccc(F)cc1Cl` [Example 61, trans-4-(4-((2-(2-chloro-4-fluorophenyl)-2-oxoethyl)(3,5-difluorobenzyl)carbamoyl)-5-(trifluoromethyl)-1H-pyrazol-1-yl)cyclohexanecarboxylic acid], the IC50 is 200000 pM. On to `O=C(CN(Cc1cc(F)cc(F)c1)C(=O)c1cnn([C@H]2CC[C@H](C(=O)O)CC2)c1C(F)(F)F)c1ccncc1` [Example 62, trans-4-(4-((3,5-difluorobenzyl)(2-oxo-2-(pyridin-4-yl)ethyl)carbamoyl)-5-(trifluoromethyl)-1H-pyrazol-1-yl)cyclohexanecarboxylic acid], for which the IC50 is greater than 1e+07 pM.

For `Cc1coc(C)c1C(=O)CN(Cc1cc(F)cc(F)c1)C(=O)c1cnn([C@H]2CC[C@H](C(=O)O)CC2)c1C(F)(F)F` [Example 63, trans-4-(4-((3,5-difluorobenzyl)(2-(2,4-dimethylfuran-3-yl)-2-oxoethyl)carbamoyl)-5-(trifluoromethyl)-1H-pyrazol-1-yl)cyclohexanecarboxylic acid], the IC50 was 3.39e+06 pM. Take `Cc1noc(C)c1C(=O)CN(Cc1cc(F)cc(F)c1)C(=O)c1cnn([C@H]2CC[C@H](C(=O)O)CC2)c1C(F)(F)F` [Example 64, trans-4-(4-((3,5-difluorobenzyl)(2-(3,5-dimethylisoxazol-4-yl)-2-oxoethyl)carbamoyl)-5-(trifluoromethyl)-1H-pyrazol-1-yl)cyclohexanecarboxylic acid]: the IC50 is greater than 1e+07 pM.

For the compound `O=C(CN(Cc1cc(F)cc(F)c1)C(=O)c1cnn([C@H]2CC[C@H](C(=O)O)CC2)c1C(F)(F)F)C1CCCCC1` [Example 65, trans-4-(4-((2-cyclohexyl-2-oxoethyl)(3,5-difluorobenzyl)carbamoyl)-5-(trifluoromethyl)-1H-pyrazol-1-yl)cyclohexanecarboxylic acid], the IC50 is greater than 1e+07 pM.

In the case of `O=C(CN(Cc1cc(F)cc(F)c1)C(=O)c1cnn([C@H]2CC[C@H](C(=O)O)CC2)c1C(F)(F)F)c1c(Cl)cc(C2CC2)cc1Cl` [Example 66, trans-4-(4-((2-(2,6-dichloro-4-cyclopropylphenyl)-oxoethyl)(3,5-difluorobenzyl)carbamoyl)-5-(trifluoromethyl)-1H-pyrazol-1-yl)cyclohexanecarboxylic acid], the IC50 is 83200 pM. Take `COc1cc(Cl)c(C(=O)CN(Cc2cc(F)cc(F)c2)C(=O)c2cnn([C@H]3CC[C@H](C(=O)O)CC3)c2C(F)(F)F)c(Cl)c1` [Example 67, trans-4-(4-((2-(2,6-dichloro-4-methoxyphenyl)-2-oxoethyl)(3,5-dffluorobenzyl)carbamoyl)-5-(trifluoromethyl)-1H-pyrazol-1-yl)cyclohexanecarboxylic acid]: the IC50 is 56200 pM. For the compound `C#Cc1cccc(Cl)c1C(=O)CN(Cc1cc(F)cc(F)c1)C(=O)c1cnn([C@H]2CC[C@H](C(=O)O)CC2)c1C(F)(F)F` [Example 68, trans-4-(4-((2-(2-chloro-6-ethynylphenyl)-2-oxoethyl)(3,5-difluorobenzyl)carbamoyl)-5-(trifluoromethyl)-1H-pyrazol-1-yl)cyclohexanecarboxylic acid], the IC50 was 1.32e+06 pM. On to `O=C(CN(Cc1cc(F)cc(F)c1)C(=O)c1cnn([C@H]2CC[C@H](C(=O)O)CC2)c1C(F)(F)F)c1ccc(O)cc1` [Example 69, trans-4-(4-((3,5-difluorobenzyl)(2-(4-hydroxyphenyl)-2-oxoethyl)carbamoyl)-5-(trifluoromethyl)-1H-pyrazol-1-yl)cyclohexanecarboxylic acid], for which the IC50 was greater than 1e+07 pM. For the compound `O=C(CN(Cc1cc(F)cc(F)c1)C(=O)c1cnn([C@H]2CC[C@H](C(=O)O)CC2)c1C(F)(F)F)c1c(Cl)cc(O)cc1Cl` [Example 70, trans-4-(4-((2-(2,6-dichloro-4-hydroxyphenyl)-2-oxoethyl)(3,5-difluorobenzyl)carbarnoyl)-5-(trifluoromethyl)-1H-pyrazol-1-yl)cyclohexanecarboxylic acid], the IC50 was greater than 1e+07 pM. The value for `O=C(CN(CC1CCOCC1)C(=O)c1cnn([C@H]2CC[C@H](C(=O)O)CC2)c1C(F)(F)F)c1c(Cl)cncc1Cl` [Example 71, trans-4-(4-((2-(3,5-dichloropyridin-4-yl)-2-oxoethyl)((tetrahydro-2H-pyran-4-yl)methyl)carbamoyl)-5-(trifluoromethyl)-1H-pyrazol-1-yl)cyclohexanecarboxylic acid] was 2.09e+06 pM.
